# Measured values taken from ChEMBL document CHEMBL5042544, “Discovery of a Potent and Selective ATAD2 Bromodomain Inhibitor with Antiproliferative Activity in Breast Cancer Models” (J Med Chem, 2022).
# Experiments:
# Peregrin (Homo sapiens) = Peregrin (Homo sapiens) (UniProt P55201); experiment: Binding affinity to human […] bromodomain assessed as residual activity at 300 nM by BROMOscan method relative to control
# [1] = target: Chromatin remodeling regulator CECR2 (Homo sapiens, UniProt Q9BXF3); experiment: Binding affinity to human CECR2 bromodomain assessed as dissociation constant by BROMOscan method
# [2] = target: Bromodomain adjacent to zinc finger domain protein 2A (Homo sapiens) (UniProt Q9UIF9); experiment: Binding affinity to human BAZ2A bromodomain assessed as residual activity at 300 nM by BROMOscan method relative to control
# [3] = target: T1, Bromodomain-containing protein 4 (Homo sapiens, UniProt O60885); experiment: Binding affinity to human BRD4 bromodomain 1 assessed as residual activity at 300 nM by BROMOscan method relative to control
# [4] = target: SWI/SNF-related matrix-associated actin-dependent regulator of chromatin subfamily A member 4 (Homo sapiens) (UniProt P51532); experiment: Binding affinity to human SMARCA4 bromodomain assessed as residual activity at 300 nM by BROMOscan method relative to control
# T47D = experiment: Antiproliferative activity against human T-47D cells expressing ATAD2 assessed as inhibition of colony formation at 0.01 to 10 uM measured after 14 to 21 days by AlamarBlue staining based colony formation assay; type: functional, cell-based; conditions: dose 0.01-10 µM, time 14-21 day
# Protein polybromo-1 = Protein polybromo-1 (Homo sapiens, UniProt Q86U86); experiment: Binding affinity to human PBRM1 bromodomain 2 assessed as residual activity at 300 nM by BROMOscan method relative to control
# MDA-MB-468 = experiment: Antiproliferative activity against human MDA-MB-468 cells expressing ATAD2 assessed as inhibition of colony formation at 0.01 to 10 uM measured after 14 to 21 days by AlamarBlue staining based colony formation assay; type: functional, cell-based; conditions: dose 0.01-10 µM, time 14-21 day
# [5] = target: Bromodomain adjacent to zinc finger domain protein 2B (Homo sapiens) (UniProt Q9UIF8); experiment: Binding affinity to human BAZ2B bromodomain assessed as residual activity at 300 nM by BROMOscan method relative to control
# [6] = target: T2, Bromodomain testis-specific protein (Homo sapiens, UniProt Q58F21); experiment: Binding affinity to human BRDT bromodomain 2 assessed as residual activity at 300 nM by BROMOscan method relative to control
# [7] = target: Nucleosome-remodeling factor subunit BPTF (Homo sapiens, UniProt Q12830); experiment: Binding affinity to human FALZ bromodomain assessed as residual activity at 300 nM by BROMOscan method relative to control
# [8] = target: Bromodomain-containing protein 9 (Homo sapiens) (UniProt Q9H8M2); experiment: Binding affinity to human BRD9 bromodomain assessed as residual activity at 300 nM by BROMOscan method relative to control
# [9] = target: T1, Bromodomain-containing protein 4; experiment: Displacement of Alexafluor 647-JQ1 from GST-BRD4 BD1 BD2 (44 to 460 residues) (unknown origin) incubated for 60 mins by fluorescence polarization assay
# [10] = target: Histone acetyltransferase KAT2B (Homo sapiens, UniProt Q92831); experiment: Binding affinity to human PCAF bromodomain assessed as residual activity at 300 nM by BROMOscan method relative to control
# [11] = target: T3, ATPase family AAA domain-containing protein 2 (Homo sapiens, UniProt Q6PL18); experiment: Displacement of Halo-tagged Histone H3.3 from Nanoluc-ATAD2 BD (962 to 1119 residues) (unknown origin) transfected in human HCT116 cells incubated for 18 hrs in presence of efflux inhibitor elacridar by NanoBRET assay; type: cell-based, HCT-116
# T3 sequence (Q6PL18 whole entry): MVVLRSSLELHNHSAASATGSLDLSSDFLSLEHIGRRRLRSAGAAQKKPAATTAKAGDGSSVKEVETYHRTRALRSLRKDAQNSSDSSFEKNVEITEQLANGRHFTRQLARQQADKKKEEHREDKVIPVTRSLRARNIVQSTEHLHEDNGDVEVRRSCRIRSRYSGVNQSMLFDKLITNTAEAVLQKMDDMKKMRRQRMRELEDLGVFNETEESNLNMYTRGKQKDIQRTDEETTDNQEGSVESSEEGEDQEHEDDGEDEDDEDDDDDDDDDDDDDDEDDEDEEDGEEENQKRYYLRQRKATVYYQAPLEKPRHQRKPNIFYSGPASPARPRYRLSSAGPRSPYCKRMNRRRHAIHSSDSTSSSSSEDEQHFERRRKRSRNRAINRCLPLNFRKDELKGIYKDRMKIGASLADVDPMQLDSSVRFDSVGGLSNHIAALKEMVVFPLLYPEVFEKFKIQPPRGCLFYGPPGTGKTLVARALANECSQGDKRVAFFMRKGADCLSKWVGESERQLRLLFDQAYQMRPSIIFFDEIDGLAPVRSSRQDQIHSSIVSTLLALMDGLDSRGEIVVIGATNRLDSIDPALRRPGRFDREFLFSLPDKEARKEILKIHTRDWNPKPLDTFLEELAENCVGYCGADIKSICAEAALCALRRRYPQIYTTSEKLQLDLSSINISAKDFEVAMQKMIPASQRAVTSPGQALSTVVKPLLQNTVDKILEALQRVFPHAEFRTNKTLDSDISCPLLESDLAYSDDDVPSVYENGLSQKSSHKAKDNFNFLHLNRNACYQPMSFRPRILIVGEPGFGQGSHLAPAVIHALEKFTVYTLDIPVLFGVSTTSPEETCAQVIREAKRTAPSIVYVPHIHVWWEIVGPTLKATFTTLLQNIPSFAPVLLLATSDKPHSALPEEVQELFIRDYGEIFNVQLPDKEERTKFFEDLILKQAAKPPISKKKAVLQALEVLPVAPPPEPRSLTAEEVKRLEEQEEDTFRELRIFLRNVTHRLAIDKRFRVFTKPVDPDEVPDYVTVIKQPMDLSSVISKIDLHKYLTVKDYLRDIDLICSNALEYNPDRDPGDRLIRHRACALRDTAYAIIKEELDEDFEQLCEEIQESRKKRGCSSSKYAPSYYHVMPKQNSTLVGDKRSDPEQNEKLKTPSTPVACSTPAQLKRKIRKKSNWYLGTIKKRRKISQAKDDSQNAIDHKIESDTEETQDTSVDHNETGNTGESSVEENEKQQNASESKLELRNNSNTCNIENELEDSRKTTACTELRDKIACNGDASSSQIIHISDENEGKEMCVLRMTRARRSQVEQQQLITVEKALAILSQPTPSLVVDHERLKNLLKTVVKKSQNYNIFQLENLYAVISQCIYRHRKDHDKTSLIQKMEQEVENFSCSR
# [12] = Distribution coefficient, logD of compound at pH 7.4; type: physicochemical; conditions: octanol/water
# [13] = target: T3, ATPase family AAA domain-containing protein 2; experiment: Binding affinity to ATAD2 bromodomain (981 to 1108 residues) (unknown origin) expressed in Escherichia coli BL21 (DE3) by BROMOscan method
# [14] = target: T2, Bromodomain testis-specific protein; experiment: Binding affinity to human BRDT bromodomain 1 assessed as residual activity at 300 nM by BROMOscan method relative to control
# [15] = target: Bromodomain-containing protein 2 (Homo sapiens, UniProt P25440); experiment: Binding affinity to human BRD2 bromodomain 1 assessed as dissociation constant by BROMOscan method
# Chain of Bromodomain-containing protein 2 (P25440 whole entry): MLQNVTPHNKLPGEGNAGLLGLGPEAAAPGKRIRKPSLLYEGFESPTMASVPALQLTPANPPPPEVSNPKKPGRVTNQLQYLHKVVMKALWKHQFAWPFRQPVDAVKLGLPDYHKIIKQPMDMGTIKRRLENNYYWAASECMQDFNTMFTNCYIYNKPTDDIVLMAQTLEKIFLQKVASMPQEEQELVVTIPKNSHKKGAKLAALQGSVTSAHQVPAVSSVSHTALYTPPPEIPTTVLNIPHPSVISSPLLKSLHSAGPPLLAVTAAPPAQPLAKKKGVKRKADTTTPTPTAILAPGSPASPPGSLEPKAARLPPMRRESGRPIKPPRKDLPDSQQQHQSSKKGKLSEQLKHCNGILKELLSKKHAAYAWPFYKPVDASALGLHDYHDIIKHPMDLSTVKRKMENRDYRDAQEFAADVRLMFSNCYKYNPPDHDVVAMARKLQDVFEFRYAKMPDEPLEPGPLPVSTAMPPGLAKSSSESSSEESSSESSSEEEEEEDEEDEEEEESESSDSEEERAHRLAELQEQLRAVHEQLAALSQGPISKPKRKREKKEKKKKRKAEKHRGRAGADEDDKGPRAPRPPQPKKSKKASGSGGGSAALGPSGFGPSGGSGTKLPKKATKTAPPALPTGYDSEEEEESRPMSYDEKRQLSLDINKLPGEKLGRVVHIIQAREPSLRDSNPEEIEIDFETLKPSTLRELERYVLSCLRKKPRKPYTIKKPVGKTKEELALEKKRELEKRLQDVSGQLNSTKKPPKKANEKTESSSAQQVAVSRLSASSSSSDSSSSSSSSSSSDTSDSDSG
# Chain of Histone acetyltransferase KAT2B (Q92831 whole entry, looked up, the tested form may be a part): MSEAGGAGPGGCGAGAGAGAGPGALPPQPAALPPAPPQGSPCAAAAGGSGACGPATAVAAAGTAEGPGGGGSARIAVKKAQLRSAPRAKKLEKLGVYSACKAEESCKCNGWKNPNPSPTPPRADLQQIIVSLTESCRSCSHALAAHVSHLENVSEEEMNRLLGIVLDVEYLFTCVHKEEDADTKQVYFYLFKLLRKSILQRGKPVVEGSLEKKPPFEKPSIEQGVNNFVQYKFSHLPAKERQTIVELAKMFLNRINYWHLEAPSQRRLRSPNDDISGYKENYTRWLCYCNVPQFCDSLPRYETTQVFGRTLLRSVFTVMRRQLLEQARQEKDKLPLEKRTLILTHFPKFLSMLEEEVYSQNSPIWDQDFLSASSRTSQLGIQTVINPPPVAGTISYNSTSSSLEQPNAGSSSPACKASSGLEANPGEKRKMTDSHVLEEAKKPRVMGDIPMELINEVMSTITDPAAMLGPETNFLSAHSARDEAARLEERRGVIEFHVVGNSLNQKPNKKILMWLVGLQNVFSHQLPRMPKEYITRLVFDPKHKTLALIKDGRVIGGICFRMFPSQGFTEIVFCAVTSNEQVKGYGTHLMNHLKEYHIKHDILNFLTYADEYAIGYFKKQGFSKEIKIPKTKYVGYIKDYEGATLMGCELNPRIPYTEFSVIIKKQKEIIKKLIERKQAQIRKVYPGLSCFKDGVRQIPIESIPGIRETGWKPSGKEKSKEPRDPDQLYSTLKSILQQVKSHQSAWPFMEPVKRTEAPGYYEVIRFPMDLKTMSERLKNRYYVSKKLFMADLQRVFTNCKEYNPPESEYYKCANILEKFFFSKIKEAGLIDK
# Chain of Protein polybromo-1 (Q86U86 whole entry): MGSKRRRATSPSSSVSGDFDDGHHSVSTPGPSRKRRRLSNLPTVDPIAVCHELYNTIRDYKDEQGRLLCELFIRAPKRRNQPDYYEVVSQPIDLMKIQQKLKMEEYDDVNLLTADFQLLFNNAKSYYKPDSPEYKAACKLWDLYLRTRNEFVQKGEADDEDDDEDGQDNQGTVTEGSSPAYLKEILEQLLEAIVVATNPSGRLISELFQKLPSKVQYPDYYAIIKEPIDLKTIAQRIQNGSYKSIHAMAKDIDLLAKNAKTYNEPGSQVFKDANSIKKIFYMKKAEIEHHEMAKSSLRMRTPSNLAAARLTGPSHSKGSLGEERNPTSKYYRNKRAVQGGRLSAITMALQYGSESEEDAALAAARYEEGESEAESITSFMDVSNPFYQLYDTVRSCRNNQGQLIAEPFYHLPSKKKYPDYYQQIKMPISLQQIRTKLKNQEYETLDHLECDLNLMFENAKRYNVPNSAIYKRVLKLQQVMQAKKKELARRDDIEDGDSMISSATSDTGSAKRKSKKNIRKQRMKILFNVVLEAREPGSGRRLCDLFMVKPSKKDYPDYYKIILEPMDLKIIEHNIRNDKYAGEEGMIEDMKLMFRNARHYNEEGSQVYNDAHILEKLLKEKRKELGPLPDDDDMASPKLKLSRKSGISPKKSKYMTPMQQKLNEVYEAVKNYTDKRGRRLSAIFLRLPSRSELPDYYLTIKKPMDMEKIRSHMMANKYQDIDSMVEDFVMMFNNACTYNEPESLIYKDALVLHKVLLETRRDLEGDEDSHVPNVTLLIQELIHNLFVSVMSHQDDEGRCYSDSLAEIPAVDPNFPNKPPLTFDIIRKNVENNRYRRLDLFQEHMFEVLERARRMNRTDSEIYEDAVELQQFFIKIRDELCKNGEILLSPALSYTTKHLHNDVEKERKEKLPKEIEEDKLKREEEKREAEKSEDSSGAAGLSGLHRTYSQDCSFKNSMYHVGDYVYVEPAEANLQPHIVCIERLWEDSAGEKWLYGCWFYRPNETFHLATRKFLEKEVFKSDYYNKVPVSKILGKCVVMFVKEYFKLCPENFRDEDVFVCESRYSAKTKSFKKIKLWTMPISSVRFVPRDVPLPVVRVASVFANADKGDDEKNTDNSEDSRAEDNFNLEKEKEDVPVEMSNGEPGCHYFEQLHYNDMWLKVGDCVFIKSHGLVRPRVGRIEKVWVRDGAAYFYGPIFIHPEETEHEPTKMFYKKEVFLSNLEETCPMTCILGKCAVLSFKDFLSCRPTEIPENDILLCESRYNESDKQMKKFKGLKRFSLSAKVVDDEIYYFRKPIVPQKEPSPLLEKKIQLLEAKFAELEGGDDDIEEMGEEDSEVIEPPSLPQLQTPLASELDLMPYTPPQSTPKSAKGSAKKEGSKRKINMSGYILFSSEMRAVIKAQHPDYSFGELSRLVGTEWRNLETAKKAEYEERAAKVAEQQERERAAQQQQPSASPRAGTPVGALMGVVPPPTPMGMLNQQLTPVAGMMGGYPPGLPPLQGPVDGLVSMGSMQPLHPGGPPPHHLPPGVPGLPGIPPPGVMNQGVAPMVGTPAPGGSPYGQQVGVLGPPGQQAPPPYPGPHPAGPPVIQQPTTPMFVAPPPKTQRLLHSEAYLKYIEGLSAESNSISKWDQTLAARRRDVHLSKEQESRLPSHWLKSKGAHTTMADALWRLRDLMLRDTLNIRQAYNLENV
# Chain of Chromatin remodeling regulator CECR2 (Q9BXF3 whole entry, the tested form may be a part): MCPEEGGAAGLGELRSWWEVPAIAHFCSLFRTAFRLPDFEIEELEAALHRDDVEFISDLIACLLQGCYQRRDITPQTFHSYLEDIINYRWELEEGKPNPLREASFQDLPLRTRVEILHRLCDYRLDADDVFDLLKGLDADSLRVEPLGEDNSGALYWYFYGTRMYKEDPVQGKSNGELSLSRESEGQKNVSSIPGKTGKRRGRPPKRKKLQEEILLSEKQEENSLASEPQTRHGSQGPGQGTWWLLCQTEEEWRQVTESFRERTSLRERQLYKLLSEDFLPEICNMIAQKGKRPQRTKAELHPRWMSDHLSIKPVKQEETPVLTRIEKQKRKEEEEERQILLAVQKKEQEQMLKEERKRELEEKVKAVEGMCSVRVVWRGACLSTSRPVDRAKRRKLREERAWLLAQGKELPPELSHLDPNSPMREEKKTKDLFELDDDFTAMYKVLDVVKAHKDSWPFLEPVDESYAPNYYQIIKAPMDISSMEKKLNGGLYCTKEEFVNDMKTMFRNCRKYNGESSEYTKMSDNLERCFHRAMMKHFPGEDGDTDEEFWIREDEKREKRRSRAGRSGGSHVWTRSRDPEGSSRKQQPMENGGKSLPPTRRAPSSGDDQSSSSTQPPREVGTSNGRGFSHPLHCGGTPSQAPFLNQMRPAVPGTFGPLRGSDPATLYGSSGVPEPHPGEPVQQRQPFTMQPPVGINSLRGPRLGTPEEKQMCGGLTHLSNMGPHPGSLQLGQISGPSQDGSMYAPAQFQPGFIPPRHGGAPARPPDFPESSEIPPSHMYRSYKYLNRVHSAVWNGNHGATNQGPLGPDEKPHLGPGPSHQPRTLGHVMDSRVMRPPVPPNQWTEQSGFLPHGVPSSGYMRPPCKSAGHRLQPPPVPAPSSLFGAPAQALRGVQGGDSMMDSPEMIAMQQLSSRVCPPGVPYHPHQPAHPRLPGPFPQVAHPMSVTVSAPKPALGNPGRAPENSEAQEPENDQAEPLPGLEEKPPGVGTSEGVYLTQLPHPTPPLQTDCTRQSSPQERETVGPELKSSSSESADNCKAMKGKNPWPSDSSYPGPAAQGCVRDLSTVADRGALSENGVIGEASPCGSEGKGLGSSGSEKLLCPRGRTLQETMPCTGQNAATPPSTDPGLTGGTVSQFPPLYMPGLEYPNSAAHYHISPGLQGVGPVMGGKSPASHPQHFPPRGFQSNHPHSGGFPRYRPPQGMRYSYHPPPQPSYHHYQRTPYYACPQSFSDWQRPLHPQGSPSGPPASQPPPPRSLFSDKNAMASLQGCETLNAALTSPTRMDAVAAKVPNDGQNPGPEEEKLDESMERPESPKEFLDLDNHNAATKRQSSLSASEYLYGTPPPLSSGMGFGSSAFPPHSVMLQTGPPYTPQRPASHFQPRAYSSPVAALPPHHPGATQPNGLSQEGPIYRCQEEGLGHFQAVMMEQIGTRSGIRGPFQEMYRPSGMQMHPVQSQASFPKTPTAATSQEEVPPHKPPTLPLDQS
structure (smiles),measurement,setting,value
Cc1nnc2c(NC3CCN(CC(C)(C)F)CC3)cc(C(=O)N3[C@@H]4c5ccccc5C[C@H]3C(=O)N[C@@H]4C(C)C)nn12,Activity,Peregrin (Homo sapiens),79%
same,Kd,[1],> 316 nM
same,Activity,[2],82%
same,Activity,[3],86%
same,Activity,[4],80%
same,Activity,T47D,Dose-Dependent Effect
same,Activity,Protein polybromo-1,80%
same,Activity,MDA-MB-468,Dose-Dependent Effect
same,Activity,[5],75%
same,Activity,[6],71%
same,Activity,[7],53%
same,Activity,[8],64%
same,IC50,[9],20000 nM
same,Activity,[10],62%
same,IC50,[11],100 nM
same,logD,[12],3
same,Kd,[13],1.26 nM
same,Activity,[14],48%
same,Kd,[15],126 nM
